Measurements published in US12686682B2, “Indazole acetylene derivatives” (Hoffmann-La Roche Inc., priority 2020, dated 2026).

What follows are compounds tested against T1, Phospho EGFR LRCS (BaF3-LRCS cell line) (Homo sapiens, UniProt P00533, C797S/L858R) (assay: HTRF Phospho EGFR LRCS Assay (Cellular)). Conditions: BaF3-LRCS cells, 4 hours incubation, HTRF phospho-EGFR readout.
T1 construct: host or cells: BaF3 (BaF3-LRCS), kept under puromycin selection
Assay type: cell-based
Procedure: HTRF Phospho EGFR LRCS Assay (Cellular)
BaF3-LRCS cell line were obtained from Crownbio (San Diego, CA, USA). Cells were maintained at 37° C., 5% C02 in RPMI ATCC (Gibco 31870)+2 mM Glutamine+0.5 μg/ml Puromycin supplemented with 10% fetal bovine serum (FBS) (Gibco).
Cells are transferred as above to Greiner Bio-One, Nr. 784-08 micro-titerplate at 20000 cells/well in 12.5 μl of growth medium/well after the plates had been pre-filled with 12.5 nl of DMSO solutions of the to be tested compounds (in dose response) or DMSO only. After spinning the plates at 300×g for 30 seconds the cells were incubated for 4 hours at 37 C, 5% C02, 95% humidity. The cells were lysed by adding to the compound mix 4 µl/well of the supplemented lysis buffer (Cis-bio, Phospho-EGFR HTRF kit, 64EG1PEH), followed by incubation for 30 min at room temperature with shaking (400 rpm). The plates were then frozen and stored overnight at −80° C. On the next day and after thawing the plates, 4 μl of a mixture of anti-Phospho-EGFR Cryptate and of anti-Phospho-EGFR-d2 antibody solutions prepared in the supplied detection buffer was added to each well. The lidded plates were then incubated for 4 h at room temperature before reading the fluorescence emission at 616 and 665 nm using an Envision reader (Perkin Elmer). Data was analyzed in similar fashion as above using the normalized ratio of the 665 to 616 signals multiplied by 10000.

T1 sequence (P00533 25-1210 C797S/L858R): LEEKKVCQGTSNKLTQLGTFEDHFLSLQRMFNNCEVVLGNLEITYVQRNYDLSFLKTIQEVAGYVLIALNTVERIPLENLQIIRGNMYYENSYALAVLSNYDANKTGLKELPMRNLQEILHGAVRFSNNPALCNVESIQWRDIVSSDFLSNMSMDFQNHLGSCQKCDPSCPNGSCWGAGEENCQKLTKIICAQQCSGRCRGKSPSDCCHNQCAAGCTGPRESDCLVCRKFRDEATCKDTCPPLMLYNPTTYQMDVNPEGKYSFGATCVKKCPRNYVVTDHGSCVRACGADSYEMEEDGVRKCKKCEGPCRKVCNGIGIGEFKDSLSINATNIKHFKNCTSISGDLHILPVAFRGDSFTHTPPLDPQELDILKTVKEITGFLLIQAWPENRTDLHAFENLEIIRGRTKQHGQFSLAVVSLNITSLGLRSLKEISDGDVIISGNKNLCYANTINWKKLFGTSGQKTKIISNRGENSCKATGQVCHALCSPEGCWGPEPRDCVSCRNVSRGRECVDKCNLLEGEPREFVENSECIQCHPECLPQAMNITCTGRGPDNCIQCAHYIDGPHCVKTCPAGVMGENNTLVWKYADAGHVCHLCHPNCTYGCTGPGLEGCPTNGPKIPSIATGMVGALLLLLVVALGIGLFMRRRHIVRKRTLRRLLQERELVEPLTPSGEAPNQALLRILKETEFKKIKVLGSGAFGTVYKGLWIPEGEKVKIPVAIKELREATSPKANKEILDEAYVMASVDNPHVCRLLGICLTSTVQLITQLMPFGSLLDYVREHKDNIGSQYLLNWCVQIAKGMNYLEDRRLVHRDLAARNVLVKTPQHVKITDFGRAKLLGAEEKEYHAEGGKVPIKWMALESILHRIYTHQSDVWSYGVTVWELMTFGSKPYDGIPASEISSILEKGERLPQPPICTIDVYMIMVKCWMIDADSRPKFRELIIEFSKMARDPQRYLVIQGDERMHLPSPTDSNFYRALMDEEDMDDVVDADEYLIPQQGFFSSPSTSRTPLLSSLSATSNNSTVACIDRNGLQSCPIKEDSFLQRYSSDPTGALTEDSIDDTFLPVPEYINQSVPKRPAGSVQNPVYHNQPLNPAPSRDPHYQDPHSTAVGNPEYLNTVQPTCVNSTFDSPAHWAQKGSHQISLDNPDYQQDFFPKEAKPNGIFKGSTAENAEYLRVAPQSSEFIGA

Question: Which IC50 does the source give for `Cc1c(C#Cc2ccc(CN3CCC(CO)CC3)cc2)cc(C(F)F)c2cn(C(C(=O)Nc3nccs3)c3ncn4c3C[C@@H](F)C4)nc12` (stereo partly drawn) [Example 1, 2-[4-(Difluoromethyl)-6-[2-[4-[[4-(hydroxymethyl)-1-piperidyl]methyl]phenyl]ethynyl]-7-methyl-indazol-2-yl]-2-[(6R)-6-fluoro-6,7-dihydro-5H-pyrrolo[1,2-c]imidazol-1-yl]-N-thiazol-2-yl-acetamide] here?
Answer: 22 nM

Question: Which IC50 does the source give for `Cc1c(C#Cc2ccc(CN3CCC(CO)CC3)cc2)cc(C(F)(F)F)c2cn(C(C(=O)Nc3nccs3)c3ncn4c3CCC4(C)C)nc12` (centres unmarked) [Example 8, 2-(5,5-Dimethyl-6,7-dihydropyrrolo[1,2-c]imidazol-1-yl)-2-[6-[2-[4-[[4-(hydroxymethyl)-1-piperidyl]methyl]phenyl]ethynyl]-7-methyl-4-(trifluoromethyl)indazol-2-yl]-N-thiazol-2-yl-acetamide] here?
Answer: 12 nM

Question: With `Cc1c(C#Cc2ccc(CN3CCC(CO)CC3)cc2)cc(C(F)(F)F)c2cn(C(C(=O)Nc3nccs3)c3ncn4c3C[C@@H](F)C4)nc12` (stereo partly drawn) [Example 3, 2-[(6R)-6-Fluoro-6,7-dihydro-5H-pyrrolo[1,2-c]imidazol-1-yl]-2-[6-[2-[4-[[4-(hydroxymethyl)-1-piperidyl]methyl]phenyl]ethynyl]-7-methyl-4-(trifluoromethyl)indazol-2-yl]-N-thiazol-2-yl-acetamide] as the compound, how does the IC50 read?
Answer: 15 nM

Question: For `Cc1c(C#Cc2ccc(CN3CCC(CO)CC3)cc2)cc(C(F)(F)F)c2cn(C(C(=O)Nc3nccs3)c3ncn4c3CCC43CC3)nc12` (centres unmarked) [Example 7], which IC50 is on record?
Answer: 11 nM

Question: `Cc1c(C#Cc2ccc(CN3CCC(CO)CC3)cc2)cc(C(F)(F)F)c2cn(C(C(=O)Nc3nccs3)c3ncn4c3CCC4)nc12` (centres unmarked) [Example 4, 2-(6,7-Dihydro-5H-pyrrolo[1,2-c]imidazol-1-yl)-2-[6-[2-[4-[[4-(hydroxymethyl)-1-piperidyl]methyl]phenyl]ethynyl]-7-methyl-4-(trifluoromethyl)indazol-2-yl]-N-thiazol-2-yl-acetamide] was tested. Which IC50 did it give?
Answer: 9 nM

Question: How did the IC50 turn out when `Cc1c(C#Cc2ccc(CN3CCC(CO)CC3)cc2)cc(C(F)F)c2cn(C(C(=O)Nc3nccs3)c3ncn4c3CCC43CC3)nc12` (centres unmarked) [Example 6] was run?
Answer: 10 nM

Question: With `Cc1c(C#Cc2ccc(CN3CCC(CO)CC3)cc2)cc(C(F)F)c2cn(C(C(=O)Nc3nccs3)c3ncn4c3CCC4(C)C)nc12` (centres unmarked) [Example 5, 2-[4-(Difluoromethyl)-6-[2-[4-[[4-(hydroxymethyl)-1-piperidyl]methyl]phenyl]ethynyl]-7-methyl-indazol-2-yl]-2-(5,5-dimethyl-6,7-dihydropyrrolo[1,2-c]imidazol-1-yl)-N-thiazol-2-yl-acetamide] as the compound, how does the IC50 read?
Answer: 11 nM

Question: Which IC50 does the source give for `Cc1c(C#Cc2ccc(CN3CCC(CO)CC3)cc2)cc(C(F)F)c2cn(C(C(=O)Nc3nccs3)c3ncn4c3CCC4)nc12` (centres unmarked) [Example 2, 2-[4-(Difluoromethyl)-6-[2-[4-[[4-(hydroxymethyl)-1-piperidyl]methyl]phenyl]ethynyl]-7-methyl-indazol-2-yl]-2-(6,7-dihydro-5H-pyrrolo[1,2-c]imidazol-1-yl)-N-thiazol-2-yl-acetamide] here?
Answer: 23 nM
